# Experiments:
# MMP-9 = assay: Gelatin zymography of human myoblasts, MMP-9; assay type: cell-based
# Procedure: Briefly, myoblasts were grown in 6 cm tissue culture plates to approximately 70% confluence, then rinsed three times with serumfree DMEM and incubated for 3 hours in DMEM containing 0.2% BSA to eliminate the effects of serum. Growth factors were added and cells were incubated for 24 hours. Culture medium was then collected, centrifuged to pellet detached cells, and concentrated ten-to twenty-fold using the Centricon-10 (Amicon, Beverly, Mass.) system. The protein concentration of the supernatants was determined using the Bio-Rad protein microassay system with BSA used as the standard. Samples were stored at −70° C. until use. For gelatin zymography, aliquots (10 μg as the total protein per sample) were electrophoresed at constant voltage on a 10% polyacrylamide gel containing 2 mg/ml gelatin. The gel was rinsed three times for 15 min in 2.5% Triton-X 100 to remove SDS and renature the proteins, then incubated in MMP activation buffer (0.05 M Tris-HCl, pH 7.5 with 5 mM CaCl2) for 24 hours at 37° C. with constant shaking. Gels were stained overnight in 0.5% Coomassie blue R-250, and destained for 1 hour in 40% methanol: 10% acetic acid. Proteinase activity was quantified by densitometric scanning of bands using a Bio-Rad Gel Doc 1000 video camera imaging system (Bio Rad, Hercules, Calif.).
# MMP-1 = assay: Gelatin zymography of mouse myoblast culture medium, MMP-1; assay type: cell-based; conditions: mouse myoblasts
# Procedure: Gelatin zymography for assaying MMPs was carried out as previously described (Guerin and Holland “Synthesis and secretion of matrix-degrading metalloproteinases by human skeletal muscle satellite cells” Devel. Dynamics 202:91-99,1995) with minor modifications. Briefly, myoblasts were grown in 6 cm tissue culture plates to approximately 70% confluence, then rinsed three times with serumfree DMEM and incubated for 3 hours in DMEM containing 0.2% BSA to eliminate the effects of serum. Growth factors were added and cells were incubated for 24 hours. Culture medium was then collected, centrifuged to pellet detached cells, and concentrated ten-to twenty-fold using the Centricon-10 (Amicon, Beverly, Mass.) system. The protein concentration of the supernatants was determined using the Bio-Rad protein microassay system with BSA used as the standard. Samples were stored at −70° C. until use. For gelatin zymography, aliquots (10 μg as the total protein per sample) were electrophoresed at constant voltage on a 10% polyacrylamide gel containing 2 mg/ml gelatin. […] Proteinase activity was quantified by densitometric scanning of bands using a Bio-Rad Gel Doc 1000 video camera imaging system (Bio Rad, Hercules, Calif.). […]
Substance,effect on MMP-9 expression (92 kDa band) (MMP-9),MMP-1 expression (57 kDa) (MMP-1)
bovine basic fibroblast growth factor [bFGF],only marginal increases in MMP-9 expression,
human serum fibronectin,,does not significantly affect
